The supplement of paper PMC10627819

Experiments:
S. aureus Newman [1] = assay: Bliss interaction score (quartile over a dose matrix) (fitness difference); higher = more antagonism (negative = synergy)
Summary of the method: (§1)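 The Bliss score is observed minus expected fitness under the product model, reported as quartiles over technical, biological and donor/recipient replicates. Fitness is the OD595 at entry into stationary phase divided by the plate's robust no-drug mean and capped at 1. Single-drug fitness was inferred from combination data.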

B. subtilis 168 [2] = assay: as above
Summary of the method: as §1

S. aureus DSM 20231 = assay: as above
Summary of the method: as §1

S. pneumoniae D39V [3] = assay: as above
Summary of the method: as §1

S. aureus Newman [4] = assay: fitness (endpoint OD595 vs no drug) (fraction); higher = more growth
Summary of the method: (§2)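 Fitness is computed from the optical density at which cultures reach stationary phase, divided by the robust mean of no-drug control wells. Any value above 1 is set to 1. Cultures started at OD595 0.01 in 384-well plates with TSB, LB Lennox or CY at 37 °C, and OD595 was read every 30 min for 14 h against a first-reading background.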

B. subtilis 168 [5] = assay: as above
Summary of the method: as §2

S. pneumoniae D39V [6] = assay: as above
Summary of the method: as §2
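Wherever Bliss interaction score (quartile over a dose matrix) is given: first quartile when negative (synergy) and third quartile when positive (antagonism).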

Cc1ncc([N+](=O)[O-])n1CCO [Metronidazole] + CN(C)c1cc(NC(=O)CNC(C)(C)C)c(O)c2c1C[C@H]1C[C@H]3[C@H](N(C)C)C(O)=C(C(N)=O)C(=O)[C@@]3(O)C(O)=C1C2=O [Tigecycline]
Conditions | Bliss interaction score
B. subtilis 168 [2] | -0.0624
S. aureus DSM 20231 | 0.0589
S. aureus Newman [1] | 0.0458
S. pneumoniae D39V [3] | 0.0439

fitness
Conditions | first compound 0.625 µg/mL | first compound 1.073 µg/mL | first compound 1.25 µg/mL | first compound 2.145 µg/mL | first compound 2.5 µg/mL | first compound 4.29 µg/mL | first compound 5 µg/mL
B. subtilis 168 [5], partner 0.039 µg/mL | 0.963 | – | 0.977 | – | ≥ 1 | – | –
B. subtilis 168 [5], partner 0.078 µg/mL | 0.942 | – | 0.94 | – | 0.976 | – | –
B. subtilis 168 [5], partner 0.156 µg/mL | 0.944 | – | 0.963 | – | 0.938 | – | –
S. aureus Newman [4], partner 0.039 µg/mL | 0.987 | – | ≥ 1 | – | 0.995 | – | –
S. aureus Newman [4], partner 0.078 µg/mL | ≥ 1 | – | 0.981 | – | ≥ 1 | – | –
S. aureus Newman [4], partner 0.156 µg/mL | 0.966 | – | 0.977 | – | ≥ 1 | – | –
S. pneumoniae D39V [6], partner 0.65 µg/mL | – | 0.931 | 0.965 | 0.925 | 0.968 | 0.935 | 0.964
S. pneumoniae D39V [6], partner 1.3 µg/mL | – | 0.931 | 0.94 | 0.938 | 0.943 | 0.949 | 0.952
S. pneumoniae D39V [6], partner 2.6 µg/mL | – | 0.921 | 0.957 | 0.911 | 0.964 | 0.943 | 0.952

fitness, one replicate
Conditions | first compound 0.625 µg/mL | first compound 0.781 µg/mL | first compound 1.25 µg/mL | first compound 1.562 µg/mL | first compound 2.5 µg/mL | first compound 3.124 µg/mL
B. subtilis 168 [5], partner 0.125 µg/mL | ≥ 1 | – | ≥ 1 | – | ≥ 1 | –
B. subtilis 168 [5], partner 0.25 µg/mL | 0.963 | – | 0.942 | – | 0.967 | –
B. subtilis 168 [5], partner 0.5 µg/mL | 0.917 | – | 0.927 | – | 0.968 | –
S. aureus Newman [4], partner 0.039 µg/mL | – | ≥ 1 | – | 0.971 | – | 0.932
S. aureus Newman [4], partner 0.078 µg/mL | – | ≥ 1 | – | ≥ 1 | – | ≥ 1
S. aureus Newman [4], partner 0.156 µg/mL | – | ≥ 1 | – | ≥ 1 | – | 0.959

O=C(O)c1cn(C2CC2)c2cc(N3CCNCC3)c(F)cc2c1=O [Ciprofloxacin] + CCC[C@@H]1C[C@@H](C(=O)N[C@@H]([C@H]2O[C@H](SC)[C@H](O)[C@@H](O)[C@H]2O)[C@H](C)Cl)N(C)C1 [Clindamycin]
Conditions | Bliss interaction score
B. subtilis 168 [2] | 0.226
S. aureus DSM 20231 | 0.0603
S. aureus Newman [1] | 0.157
S. pneumoniae D39V [3] | 0.061

Conditions | fitness
B. subtilis 168 [5], first compound 0.0098 µg/mL, partner 0.0625 µg/mL | 0.508
B. subtilis 168 [5], first compound 0.0098 µg/mL, partner 0.125 µg/mL | 0.394
B. subtilis 168 [5], first compound 0.0098 µg/mL, partner 0.25 µg/mL | 0.373
B. subtilis 168 [5], first compound 0.0195 µg/mL, partner 0.0625 µg/mL | 0.416
B. subtilis 168 [5], first compound 0.0195 µg/mL, partner 0.125 µg/mL | 0.337
B. subtilis 168 [5], first compound 0.0195 µg/mL, partner 0.25 µg/mL | 0.312
B. subtilis 168 [5], first compound 0.039 µg/mL, partner 0.0625 µg/mL | 0.39
B. subtilis 168 [5], first compound 0.039 µg/mL, partner 0.125 µg/mL | 0.311
B. subtilis 168 [5], first compound 0.039 µg/mL, partner 0.25 µg/mL | 0.303
S. aureus Newman [4], first compound 0.0375 µg/mL, partner 0.0312 µg/mL | 0.545
S. aureus Newman [4], first compound 0.0375 µg/mL, partner 0.0625 µg/mL | 0.425
S. aureus Newman [4], first compound 0.0375 µg/mL, partner 0.125 µg/mL | 0.11
S. aureus Newman [4], first compound 0.075 µg/mL, partner 0.0312 µg/mL | 0.604
S. aureus Newman [4], first compound 0.075 µg/mL, partner 0.0625 µg/mL | 0.475
S. aureus Newman [4], first compound 0.075 µg/mL, partner 0.125 µg/mL | 0.153
S. aureus Newman [4], first compound 0.15 µg/mL, partner 0.0312 µg/mL | 0.335
S. aureus Newman [4], first compound 0.15 µg/mL, partner 0.0625 µg/mL | 0.292
S. aureus Newman [4], first compound 0.15 µg/mL, partner 0.125 µg/mL | 0.104
S. pneumoniae D39V [6], first compound 0.125 µg/mL, partner 0.0125 µg/mL | 0.763
S. pneumoniae D39V [6], first compound 0.125 µg/mL, partner 0.015 µg/mL | 0.8
S. pneumoniae D39V [6], first compound 0.125 µg/mL, partner 0.025 µg/mL | 0.531
S. pneumoniae D39V [6], first compound 0.125 µg/mL, partner 0.03 µg/mL | 0.54
S. pneumoniae D39V [6], first compound 0.125 µg/mL, partner 0.05 µg/mL | 0.2
S. pneumoniae D39V [6], first compound 0.125 µg/mL, partner 0.06 µg/mL | 0.325
S. pneumoniae D39V [6], first compound 0.25 µg/mL, partner 0.0125 µg/mL | 0.733
S. pneumoniae D39V [6], first compound 0.25 µg/mL, partner 0.025 µg/mL | 0.494
S. pneumoniae D39V [6], first compound 0.25 µg/mL, partner 0.05 µg/mL | 0.168
S. pneumoniae D39V [6], first compound 0.5 µg/mL, partner 0.0125 µg/mL | 0.636
S. pneumoniae D39V [6], first compound 0.5 µg/mL, partner 0.015 µg/mL | 0.564
S. pneumoniae D39V [6], first compound 0.5 µg/mL, partner 0.025 µg/mL | 0.434
S. pneumoniae D39V [6], first compound 0.5 µg/mL, partner 0.03 µg/mL | 0.431
S. pneumoniae D39V [6], first compound 0.5 µg/mL, partner 0.05 µg/mL | 0.158
S. pneumoniae D39V [6], first compound 0.5 µg/mL, partner 0.06 µg/mL | 0.294

fitness, one replicate
Conditions | partner 0.0039 µg/mL | partner 0.0078 µg/mL | partner 0.015 µg/mL | partner 0.0156 µg/mL | partner 0.03 µg/mL | partner 0.06 µg/mL
B. subtilis 168 [5], first compound 0.0098 µg/mL | ≥ 1 | 0.403 | – | 0.818 | – | –
B. subtilis 168 [5], first compound 0.0195 µg/mL | 0.903 | 0.394 | – | 0.742 | – | –
B. subtilis 168 [5], first compound 0.039 µg/mL | 0.627 | 0.326 | – | 0.557 | – | –
S. pneumoniae D39V [6], first compound 0.25 µg/mL | – | – | 0.708 | – | 0.454 | 0.259

CN(C)c1cc(NC(=O)CNC(C)(C)C)c(O)c2c1C[C@H]1C[C@H]3[C@H](N(C)C)C(O)=C(C(N)=O)C(=O)[C@@]3(O)C(O)=C1C2=O [Tigecycline] + CC1=C\[C@@H](O)CC(=O)Cc2nc(co2)C(=O)N2CCC=C2C(=O)O[C@H](C(C)C)[C@H](C)/C=C/C(=O)NC\C=C\1 [Virginiamycin M1]
Conditions | Bliss interaction score
B. subtilis 168 [2] | -0.0387
S. aureus DSM 20231 | 0.109
S. aureus Newman [1] | -0.0271
S. pneumoniae D39V [3] | -0.0538

fitness
Conditions | first compound 0.039 µg/mL | first compound 0.078 µg/mL | first compound 0.156 µg/mL | first compound 0.65 µg/mL | first compound 1.3 µg/mL | first compound 2.6 µg/mL
B. subtilis 168 [5], partner 0.0625 µg/mL | 0.977 | 0.987 | 0.96 | – | – | –
B. subtilis 168 [5], partner 0.125 µg/mL | 0.95 | 0.938 | 0.954 | – | – | –
B. subtilis 168 [5], partner 0.25 µg/mL | 0.997 | 0.989 | 0.953 | – | – | –
S. aureus Newman [4], partner 0.0625 µg/mL | 0.982 | ≥ 1 | ≥ 1 | – | – | –
S. aureus Newman [4], partner 0.125 µg/mL | 0.998 | 0.999 | ≥ 1 | – | – | –
S. aureus Newman [4], partner 0.25 µg/mL | 0.993 | 0.996 | ≥ 1 | – | – | –
S. pneumoniae D39V [6], partner 0.5 µg/mL | – | – | – | 0.99 | 0.961 | 0.976
S. pneumoniae D39V [6], partner 1 µg/mL | – | – | – | 0.946 | 0.951 | 0.956
S. pneumoniae D39V [6], partner 2 µg/mL | – | – | – | 0.919 | 0.904 | 0.931

one replicate
Conditions | fitness
B. subtilis 168 [5], first compound 0.125 µg/mL, partner 0.0625 µg/mL | ≥ 1
B. subtilis 168 [5], first compound 0.125 µg/mL, partner 0.125 µg/mL | ≥ 1
B. subtilis 168 [5], first compound 0.125 µg/mL, partner 0.25 µg/mL | ≥ 1
B. subtilis 168 [5], first compound 0.25 µg/mL, partner 0.0625 µg/mL | 0.908
B. subtilis 168 [5], first compound 0.25 µg/mL, partner 0.125 µg/mL | 0.908
B. subtilis 168 [5], first compound 0.25 µg/mL, partner 0.25 µg/mL | 0.98
B. subtilis 168 [5], first compound 0.5 µg/mL, partner 0.0625 µg/mL | 0.959
B. subtilis 168 [5], first compound 0.5 µg/mL, partner 0.125 µg/mL | 0.903
B. subtilis 168 [5], first compound 0.5 µg/mL, partner 0.25 µg/mL | 0.925
S. aureus Newman [4], first compound 0.039 µg/mL, partner 0.5 µg/mL | 0.817
S. aureus Newman [4], first compound 0.039 µg/mL, partner 1 µg/mL | 0.983
S. aureus Newman [4], first compound 0.039 µg/mL, partner 2 µg/mL | 0.768
S. aureus Newman [4], first compound 0.078 µg/mL, partner 0.5 µg/mL | 0.817
S. aureus Newman [4], first compound 0.078 µg/mL, partner 1 µg/mL | 0.877
S. aureus Newman [4], first compound 0.078 µg/mL, partner 2 µg/mL | 0.742
S. aureus Newman [4], first compound 0.156 µg/mL, partner 0.5 µg/mL | 0.86
S. aureus Newman [4], first compound 0.156 µg/mL, partner 1 µg/mL | 0.872
S. aureus Newman [4], first compound 0.156 µg/mL, partner 2 µg/mL | 0.745
S. pneumoniae D39V [6], first compound 0.65 µg/mL, partner 0.15 µg/mL | 0.982
S. pneumoniae D39V [6], first compound 0.65 µg/mL, partner 0.3 µg/mL | 0.92
S. pneumoniae D39V [6], first compound 1.3 µg/mL, partner 0.15 µg/mL | 0.963
S. pneumoniae D39V [6], first compound 1.3 µg/mL, partner 0.3 µg/mL | 0.914
S. pneumoniae D39V [6], first compound 2.6 µg/mL, partner 0.15 µg/mL | 0.928
S. pneumoniae D39V [6], first compound 2.6 µg/mL, partner 0.3 µg/mL | 0.86
